Data as given in the Kinase Knowledgebase extract (Sharma et al. 2016).
Where “and” joins values, the source holds several entries; their conditions need not be identical. Equal values may be shown once.

biological target: MAPK14 (human) (UniProt Q16539); assay: Inhibition of LPS Stimulated TNF Production by U937 Cells; details: not given
Sequence (Q16539 whole entry, looked up): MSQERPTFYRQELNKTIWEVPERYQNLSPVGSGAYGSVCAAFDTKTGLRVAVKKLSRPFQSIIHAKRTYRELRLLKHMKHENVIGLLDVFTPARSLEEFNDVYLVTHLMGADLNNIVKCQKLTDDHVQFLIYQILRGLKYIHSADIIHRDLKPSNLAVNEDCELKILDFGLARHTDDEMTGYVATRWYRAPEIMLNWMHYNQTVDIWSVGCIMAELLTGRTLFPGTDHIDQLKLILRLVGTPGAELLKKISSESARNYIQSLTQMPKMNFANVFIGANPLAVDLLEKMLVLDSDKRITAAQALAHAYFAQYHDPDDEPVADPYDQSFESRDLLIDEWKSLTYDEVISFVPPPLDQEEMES

Compound | IC50
Fc1ccc(CNc2cc(-c3cn(CCN4CCOCC4)nc3-c3ccc(F)cc3)ccn2)cc1 | 180 nM and 450 nM
Fc1ccc(-c2n[nH]cc2-c2ccnc(NCCN3CCOCC3)c2)cc1 | 539 nM
O=C(c1ccc(Br)cc1)N1CCC(c2[nH]nc(-c3ccc(F)cc3)c2-c2ccncc2)CC1 | 1380 nM
CNC(=O)CC[C@H](NC(=O)c1ccno1)c1[nH]nc(-c2ccc(F)cc2)c1-c1ccncc1 | > 1000 nM
O=C(N[C@H](Cc1ccccc1)c1[nH]nc(-c2ccc(F)cc2)c1-c1ccncc1)c1cccc(Br)c1 | > 1000 nM
CCCc1n[nH]c(-c2cccc(C)c2)c1-c1ccncc1 | 29 nM
C[C@@H](NS(=O)(=O)c1ccc(F)cc1)c1[nH]nc(-c2ccc(F)cc2)c1-c1ccncc1 | 900 nM
O=S(=O)(c1cccc(Br)c1)N1CCC(c2[nH]nc(-c3ccc(F)cc3)c2-c2ccncc2)CC1 | > 1000 nM
Fc1ccc(-c2n[nH]cc2-c2ccnc3ccccc23)cc1 | 1130 nM
Fc1ccc(CNc2cc(-c3cnn(CCN4CCOCC4)c3-c3ccc(F)cc3)ccn2)cc1 | 450 nM
Fc1cc(-c2c[nH]nc2-c2ccc(F)c(F)c2)ccn1 | 517 nM
O=C(c1ccc(I)cc1)N1CCC(c2[nH]nc(-c3ccc(F)cc3)c2-c2ccncc2)CC1 | 270 nM
CN(C)CCNc1cc(-c2c[nH]nc2-c2ccc(F)cc2)ccn1 | 259 nM
O=C(c1cccs1)N1CCC(c2[nH]nc(-c3ccc(F)cc3)c2-c2ccncc2)CC1 | 370 nM
Fc1ccc(-c2[nH]nc(Nc3ccccc3)c2-c2ccncc2)cc1 | 1090 nM
Cn1cc(-c2ccncc2)c(-c2ccc(C(F)(F)F)cc2)n1 | 1200 nM
CCNC(=O)N1CCC(c2[nH]nc(-c3ccc(F)cc3)c2-c2ccncc2)CC1 | 730 nM
COc1cccc(-c2[nH]nc(C)c2-c2ccncc2)c1 | 477 nM

More lines, now with the values ahead:

IC50 | Compound
> 1000 nM | O=C(NCCc1[nH]nc(-c2ccc(F)cc2)c1-c1ccncc1)c1cccc(C(F)(F)F)c1F
5000 nM | C[C@@H](NC(=O)NCCc1[nH]nc(-c2ccc(F)cc2)c1-c1ccncc1)c1ccccc1
210 nM | O=S(=O)(Cc1ccccc1)NCc1[nH]nc(-c2ccc(F)cc2)c1-c1ccncc1
2760 nM | O=C(NCc1[nH]nc(-c2ccc(F)cc2)c1-c1ccncc1)c1ccc(F)cc1
> 1000 nM | O=C(NCCc1[nH]nc(-c2ccc(F)cc2)c1-c1ccncc1)c1cc(Cl)cc(Cl)c1
> 1000 nM | CS(=O)(=O)c1ccc(CNC(=O)NCCCc2[nH]nc(-c3ccc(F)cc3)c2-c2ccncc2)cc1
> 1000 nM | COc1ccc(C)cc1S(=O)(=O)NCc1[nH]nc(-c2ccc(F)cc2)c1-c1ccncc1
> 1000 nM | O=C(N[C@H](Cc1ccccc1)c1[nH]nc(-c2ccc(F)cc2)c1-c1ccncc1)c1ccc(F)c(F)c1F
480 nM | O=S(=O)(NCCCc1[nH]nc(-c2ccc(F)cc2)c1-c1ccncc1)c1ccccc1Br

same assay, conditions: concentration not given here

Compound | inhibition
C[C@H](NS(=O)(=O)c1ccc(S(=O)(=O)c2ccccc2)s1)c1[nH]nc(-c2ccc(F)cc2)c1-c1ccncc1 | 72%
C=CCNC(=O)N[C@H](C)c1[nH]nc(-c2ccc(F)cc2)c1-c1ccncc1 | 48%
C[C@@H](NS(=O)(=O)c1cn(C)cn1)c1[nH]nc(-c2ccc(F)cc2)c1-c1ccncc1 | 80%
C[C@@H](NC(=O)c1c(F)ccc(F)c1F)c1[nH]nc(-c2ccc(F)cc2)c1-c1ccncc1 | 73%
C[C@@H](NC(=O)c1cc(F)c(F)cc1F)c1[nH]nc(-c2ccc(F)cc2)c1-c1ccncc1 | 52%
O=S(=O)(NCCc1[nH]nc(-c2ccc(F)cc2)c1-c1ccncc1)c1cccc2cnccc12 | 91%
Cc1c(-c2ccncc2)c(-c2ccc(F)cc2)nn1CC(=O)NCCc1cccs1 | 36%
CCCCOc1ccc(S(=O)(=O)NCc2[nH]nc(-c3ccc(F)cc3)c2-c2ccncc2)cc1 | 31%
CC(=O)NCCNC(=O)NCCCc1[nH]nc(-c2ccc(F)cc2)c1-c1ccncc1 | 9%
CCCCCCCCS(=O)(=O)NCc1[nH]nc(-c2ccc(F)cc2)c1-c1ccncc1 | 12%
C[C@@H](NC(=O)C1CC1)c1[nH]nc(-c2ccc(F)cc2)c1-c1ccncc1 | 46%
C[C@H](NS(=O)(=O)c1cccc(Cl)c1Cl)c1[nH]nc(-c2ccc(F)cc2)c1-c1ccncc1 | 78%
C[C@H](NS(=O)(=O)c1ccc(F)c(Cl)c1)c1[nH]nc(-c2ccc(F)cc2)c1-c1ccncc1 | 85%
Cc1noc(C)c1S(=O)(=O)N[C@@H](C)c1[nH]nc(-c2ccc(F)cc2)c1-c1ccncc1 | 74%
C[C@@H](NS(=O)(=O)c1ccccc1S(C)(=O)=O)c1[nH]nc(-c2ccc(F)cc2)c1-c1ccncc1 | 80%
Cc1ccc(S(=O)(=O)N[C@H](C)c2[nH]nc(-c3ccc(F)cc3)c2-c2ccncc2)cc1 | 39%
O=C(N[C@H](Cc1ccccc1)c1[nH]nc(-c2ccc(F)cc2)c1-c1ccncc1)[C@@H]1CCCN1 | 11%
COc1ccc(C)cc1S(=O)(=O)N[C@@H](C)c1[nH]nc(-c2ccc(F)cc2)c1-c1ccncc1 | 76%
C[C@H](NS(=O)(=O)c1cccc(Cl)c1)c1[nH]nc(-c2ccc(F)cc2)c1-c1ccncc1 | 93%

Compound | inhibition
C[C@@H](NS(=O)(=O)c1ccc(F)c(Cl)c1)c1[nH]nc(-c2ccc(F)cc2)c1-c1ccncc1 | 98%
O=C(NCCCc1[nH]nc(-c2ccc(F)cc2)c1-c1ccncc1)NCCCN1CCCC1 | 1%
N#Cc1ccc(S(=O)(=O)N2CCC(c3[nH]nc(-c4ccc(F)cc4)c3-c3ccncc3)CC2)cc1 | 24%
C[C@H](NS(=O)(=O)c1ccc(Cl)cc1Cl)c1[nH]nc(-c2ccc(F)cc2)c1-c1ccncc1 | 88%
COc1ccc(S(=O)(=O)N[C@@H](C)c2[nH]nc(-c3ccc(F)cc3)c2-c2ccncc2)cc1OC | 66%
Cc1cc(C)c(S(=O)(=O)N[C@H](C)c2[nH]nc(-c3ccc(F)cc3)c2-c2ccncc2)c(C)c1 | 65%
CCc1ccc(S(=O)(=O)N[C@H](C)c2[nH]nc(-c3ccc(F)cc3)c2-c2ccncc2)cc1 | 92%
C[C@@H](NS(=O)(=O)c1ccc(F)cc1F)c1[nH]nc(-c2ccc(F)cc2)c1-c1ccncc1 | 55%
CN(C)S(=O)(=O)NCc1[nH]nc(-c2ccc(F)cc2)c1-c1ccncc1 | 18%
C[C@@H](NS(=O)(=O)c1cccc(Br)c1)c1[nH]nc(-c2ccc(F)cc2)c1-c1ccncc1 | 95%
C[C@H](NC(=O)c1ccc(F)c(F)c1)c1[nH]nc(-c2ccc(F)cc2)c1-c1ccncc1 | 52%
CCN(CC)C(=O)N[C@@H](C)c1[nH]nc(-c2ccc(F)cc2)c1-c1ccncc1 | 63%
C[C@@H](NS(=O)(=O)c1ccc(F)cc1Cl)c1[nH]nc(-c2ccc(F)cc2)c1-c1ccncc1 | 81%
CC(C)OC(=O)N[C@H](C)c1[nH]nc(-c2ccc(F)cc2)c1-c1ccncc1 | 45%
Cc1ccc(C)c(S(=O)(=O)N[C@H](C)c2[nH]nc(-c3ccc(F)cc3)c2-c2ccncc2)c1 | 93%
C[C@@H](NC(=O)c1cc(F)cc(C(F)(F)F)c1)c1[nH]nc(-c2ccc(F)cc2)c1-c1ccncc1 | 52%
C[C@H](NS(=O)(=O)c1ccc(Cl)s1)c1[nH]nc(-c2ccc(F)cc2)c1-c1ccncc1 | 95%
O=S(=O)(NCCc1[nH]nc(-c2ccc(F)cc2)c1-c1ccncc1)c1ccc(Cl)cc1Cl | 31%
COc1ccc(Cl)cc1S(=O)(=O)N[C@@H](C)c1[nH]nc(-c2ccc(F)cc2)c1-c1ccncc1 | 76%

Now from value to molecule:

inhibition | Compound
86% | C[C@H](NS(=O)(=O)c1ccc(C(F)(F)F)cc1)c1[nH]nc(-c2ccc(F)cc2)c1-c1ccncc1
29% | COc1cc(NC(=O)NCc2[nH]nc(-c3ccc(F)cc3)c2-c2ccncc2)cc(OC)c1OC
30% | O=S(=O)(NCc1[nH]nc(-c2ccc(F)cc2)c1-c1ccncc1)c1cccc(Cl)c1Cl
64% | C[C@@H](NC(=O)c1cccc(F)c1F)c1[nH]nc(-c2ccc(F)cc2)c1-c1ccncc1
55% | O=C(NCc1[nH]nc(-c2ccc(F)cc2)c1-c1ccncc1)c1ccccc1Cl
25% | C[C@@H](NC(=O)NCCc1[nH]nc(-c2ccc(F)cc2)c1-c1ccncc1)c1ccccc1
58% | O=S(=O)(NCc1[nH]nc(-c2ccc(F)cc2)c1-c1ccncc1)c1cc(S(=O)(=O)c2ccccc2)cs1
21% | O=C(NCc1[nH]nc(-c2ccc(F)cc2)c1-c1ccncc1)N[C@@H]1C[C@@H]1c1ccccc1
33% | C[C@H](NC(=O)c1ccc(C(F)(F)F)cc1F)c1[nH]nc(-c2ccc(F)cc2)c1-c1ccncc1
24% | Cc1ccc(F)cc1S(=O)(=O)NCc1[nH]nc(-c2ccc(F)cc2)c1-c1ccncc1
48% | C[C@H](NC(=O)c1cc2ccccc2s1)c1[nH]nc(-c2ccc(F)cc2)c1-c1ccncc1
17% | NC(=O)N[C@@H](Cc1ccccc1)c1[nH]nc(-c2ccc(F)cc2)c1-c1ccncc1
25% | O=C(NCc1[nH]nc(-c2ccc(F)cc2)c1-c1ccncc1)Nc1ccccc1OC(F)(F)F
20% | O=C(NCCc1[nH]nc(-c2ccc(F)cc2)c1-c1ccncc1)c1cnc2ccccc2n1
91% | C[C@@H](NS(=O)(=O)Cc1ccccc1[N+](=O)[O-])c1[nH]nc(-c2ccc(F)cc2)c1-c1ccncc1
34% | O=C(NCc1[nH]nc(-c2ccc(F)cc2)c1-c1ccncc1)c1cc(F)cc(F)c1
94% | C[C@H](NS(=O)(=O)c1ccccc1Cl)c1[nH]nc(-c2ccc(F)cc2)c1-c1ccncc1
60% | O=S(=O)(NCc1[nH]nc(-c2ccc(F)cc2)c1-c1ccncc1)c1ccc(C(F)(F)F)cc1
16% | C[C@@H](NC(=O)c1cc2ccccc2s1)c1[nH]nc(-c2ccc(F)cc2)c1-c1ccncc1
80% | C[C@@H](NS(=O)(=O)c1ccccc1Br)c1[nH]nc(-c2ccc(F)cc2)c1-c1ccncc1
31% | C[C@H](NC(=O)c1ccccc1F)c1[nH]nc(-c2ccc(F)cc2)c1-c1ccncc1
48% | CCOC(=O)NCc1[nH]nc(-c2ccc(F)cc2)c1-c1ccncc1
70% | C[C@@H](NS(=O)(=O)c1ccccc1C(F)(F)F)c1[nH]nc(-c2ccc(F)cc2)c1-c1ccncc1
7% | N#Cc1cccc(C(=O)NCCc2[nH]nc(-c3ccc(F)cc3)c2-c2ccncc2)c1
17% | CS(=O)(=O)N[C@H](Cc1ccccc1)c1[nH]nc(-c2ccc(F)cc2)c1-c1ccncc1
33% | O=C(NCc1[nH]nc(-c2ccc(F)cc2)c1-c1ccncc1)c1cccc(Cl)c1Cl
